{"source": "patent US6916843B1", "about": "“Anti-inflammatory actions of cytochrome P450 expoxygenase-derived eicosanoids” (The United States of America as represented by the …, priority 1999, dated 2005)", "key": {"IκB-α": {"tested_on": "IκB-α", "assay": "Fate of IκB-α after TNF-α stimulation of human endothelial cells", "type": "cell-based", "details": "TNF-α 10 ng/ml, 15 min; EET 100 nM", "description": "Co-treatment with [11,12]-EET prevented the nuclear accumulation of RelA. Since the nuclear translocation of RelA requires the degradation of its endogenous cytoplasmic inhibitor, inhibitor kappa B (IκB-α), we followed the fate of IκB-α after TNF-α stimulation in the presence or absence of [11,12]-EET. Stimulation of human endothelial cells with TNF-α caused a rapid and almost complete disappearance of IκB-α which was prevented by co-treatment with [11,12]-EET, but not [14,15]-EET.\nA set of gel shift assays was performed. […] In some assays, [11,12]-EET (100 nM) was also added directly to the IKK assay (in vitro). As a control for nonspecific phosphorylation, the assay was performed without the addition of immunoprecipitated IKK (no enzyme) or in the presence of a IκB-α mutant (ΔSer 32, Ser 36→Thr) as substrate. The assay was performed three times with similar results.\nSpecificity of IKB was determined by the complete absence of phosphorylation when the mutated IκB-α substrate, GST-1κB-α (Δ32,36: S→T) which cannot be phosphorylated at serine residues 32 and 36, was substituted for wild-type GST-IκB-α."}, "[1]": {"tested_on": "mononuclear cell adhesion to carotid artery", "assay": "TNF-α-induced mononuclear cell (U937) adhesion in the murine carotid artery", "type": "in vivo", "details": "mouse, intra-arterial infusion 100 ng/kg/min, TNF-α 10 μg/kg i.p., 5 hours", "procedure": "FIG. 3A is a graph showing the expression of VCAM-1 in the murine carotid artery at 5 hours after treatment with intraperitaneal injection of TNF-α (10 μg/kg) alone or in combination with continuous intra-arterial infusion of [11,12]-EET (100 ng/kg/min). FIG. 3B is a bar graph showing the effect of [11,12]-EET on TNF-α induced mononuclear cell adhesion in the murine carotid artery. The mononuclear cells (U937) were perfused through the carotid artery at a wall shear stress of 3 dyn/cm^2. Intra-arterial infusion of vehicle (saline) or [14,15]-EET (100 ng/kg/min) had no effect. […] All experiments except the [14,15]-EET infusion were performed in duplicate.\nTo determine the functional relevance of EETs in vascular inflammation, we tested [11,12]-EET and its regioisomer [14,15]-EET in a recently developed in vivo model of TNF-α-induced VCAM-1 -mediated mononuclear cell adhesion in the murine carotid artery. […]\nCell rolling and adhesion were recorded on videotape using stroboscopic epifluoresence illumination with an introvital microscope (objective Zeiss 20×, 0.5 numerical aperture). […] In separate experiments, VCAM-1 expression was measured in paraffin-sections (5 μm thick) of carotid arteries harvested from mice treated in the same way. […]"}, "[2]": {"tested_on": "bovine aortic endothelial cells (BAECs)", "assay": "Hypoxia-reoxygenation-induced cell injury in BAECs (cell number, LDH release, trypan blue)", "type": "cell-based", "details": "1 μmol/L, added 10 min prior to hypoxia (24 h hypoxia, 4 h reoxygenation)", "procedure": "Effects of P450-derived arachidonic acid metabolites on hypoxia-reoxygenalion-induced injury in BAECs. BAECs, either untransfected, or 48 hours after transfection with pcDNA3.1/GFP or pcDNA3.1/CYP2J2, or 10 min after treatment with eicosanoids, epoxide hydrolase inhibitors or vehicle, were exposed to hypoxia (95% nitrogen plus 5% carbon dioxide) for 24 hours, followed by reoxygenation (95% air plus 5% carbon dioxide) for 4 hours using an environmental chamber within a 37° C. incubator. Cells maintained under continuous (28 hours) normoxic conditions served as controls.\nEETs were prepared by total chemical synthesis as previously described (Corey el al., 102 J. Am. Chem. Soc. 1433-1435 (1980), Falck et al., 23 Tetrahedron Lett. 1755-1756 (1982)). DHETs were prepared by chemical hydration of EETs as described by Capdevila et al., 187 Methods Enzymol. 386-394 (1990). Synthetic EETs and DHETs were purified by reverse-phase HPLC prior to use. BAECs, grown to ˜85% confluency, were treated with either synthetic [11,12]-EET, [11,12]-DHET, or [14,15]-EET in ethanol vehicle (1 μmol/L each, final concentration) for 10 min prior to exposure to hypoxia-reoxygenation. […] Cells treated with vehicle alone served as controls.\nAfter hypoxia-reoxygenation, the cell number was determined using a hemocytometer and the degree of cell injury was assessed by measuring lactate dehydrogenase release into the culture medium using the CytoTox 96 Non-Radioactive Cytotoxicity Assay Kit (Promega, Madison, Wis.) and by counting the number of trypan blue dye stained cells. Data are expressed as a percentage of values obtained from control cells maintained under normoxic conditions."}, "VCAM-1 expression": {"tested_on": "VCAM-1 expression", "assay": "Cell-surface enzyme immunoassay of cytokine-induced VCAM-1 expression in endothelial cells", "type": "cell-based, human", "details": "human endothelial cells, 1-100 nM, TNF-α", "procedure": "FIG. 2 is a set of bar graphs of cell-surface enzyme immunoassays. […] The difference between treatment with TNF-α alone and in the presence of [11,12]-EET were statistically significant (*p<0.05, **p<0.01), OD, optical density. […] After stimulation with TNF-α (10 ng/ml) in the presence or absence of EET, promoter activity was determined relative to basal activity. *p<0.01 vs. TNF-α alone.\nTo determine the biological effects of EETs, we treated tumor necrosis factor alpha (TNF-α)-stimulated human endothelial cells with physiological relevant concentrations (1-100 nM) of [5,6]-EET, [8,9]-EET, [11,12]-EET, [14,15]-EET, [11,12]-DHET."}, "[3]": {"molecular_target": "mutated IκB-α substrate GST-IκB-α (Δ32,36: S→T) (UniProt P25963)", "sequence (P25963 other isoform, or with tags, fused parts or gaps mutant)": "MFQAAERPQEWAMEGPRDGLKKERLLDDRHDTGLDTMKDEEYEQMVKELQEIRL"}, "[4]": {"molecular_target": "purified GST-IκB-α fusion protein (wild-type) (UniProt P25963)", "sequence (P25963 1-54)": "as the sequence (P25963 other isoform, or with tags, fused parts or gaps mutant) above, with T32S, T36S counted along it"}}, "note": "Entries after “also recorded” stand apart in the source; their conditions may differ. Peptide text beside a SMILES is read from it. * marks the point of attachment. Cbz = O=C(OCc1ccccc1)*", "data": [{"molecule": "CC(C)C[C@@H](C=O)NC(=O)[C@H](CC(C)C)NC(=O)[C@H](CC(C)C)NC(=O)OCc1ccccc1", "note": "[MG132, reference compound] (Cbz-Leu-Leu-Leu-aldehyde)", "values": [{"measurement": "effect on TNF-α-induced disappearance/degradation of IκB-α", "setting": "IκB-α", "result": "prevented"}]}, {"molecule": "CCCCCC1OC1C/C=C\\C/C=C\\C/C=C\\CCCC(=O)O", "note": "(stereo not drawn) [[14,15]-EET]", "values": [{"measurement": "mononuclear cell adhesion to the vessel wall", "setting": "[1]", "result": "had no effect"}, {"measurement": "hypoxia-reoxygenation-induced cell injury, number of trypan blue stained cells", "setting": "[2]", "result": "active in attenuating; also recorded: significantly attenuates"}, {"measurement": "inhibition of TNF-α-induced VCAM-1 expression (rank/words)", "setting": "VCAM-1 expression", "result": "did not inhibit"}]}, {"molecule": "IκB kinase (IKK) immunoprecipitated from human endothelial cells", "values": [{"measurement": "IKK activity (phosphorylation of mutated substrate)", "setting": "[3]", "result": "complete absence of phosphorylation when the mutated IκB-α substrate, GST-1κB-α (Δ32,36: S→T) which cannot be phosphorylated at serine residues 32 and 36, was substituted for wild-type GST-IκB-α"}, {"measurement": "IKK activity (phosphorylation of GST-IκB-α substrate)", "setting": "[4]", "result": "Stimulation with TNF-α caused an increase in IKK activity"}]}]}
